Common to all, as to settings: labelled compound; empty-vector values used to normalize
The test system of assay [1] is ClAAP6.
Assay [2] deals with ClAAP3.
The test system of assay [3] is T1, ClAAP6.
T1 construct: untagged; expressed in S. cerevisiae 22Δ10α lacking endogenous amino acid transporters
In words: [3H]Arg uptake into yeast […]Δ[…]α cells. The assay is classed as cell-based, Citrullus lanatus.

For assay [4], the system named is T2, ClAAP3.
T2 construct: untagged; expressed in S. cerevisiae 22Δ10α lacking endogenous amino acid transporters
In words: [3H]Arg uptake into yeast […]Δ[…]α cells. Type of assay: cell-based, Citrullus lanatus.

Where two headings read alike, the source gives them in different places.

As to `O=C(O)[C@@H]1CCCN1` [Pro], the figures for the Km in assay [1] and in assay [2] were 74 ± 9.8 µM and 398 ± 48.6 µM, respectively.
As for `N=C(N)NCCC[C@H](N)C(=O)O` [Arg], the Michaelis constant (Km) in assay [3] was found to be 579 ± 24.1 µM; in assay [4], 54.1 ± 7.5 µM.

The values are drawn from PMC6928636, “Broad-Spectrum Amino Acid Transporters ClAAP3 and ClAAP6 Expressed in Watermelon Fruits” (International Journal of Molecular Sciences, 2019).
